{"source": "patent US11827629B2", "about": "“CDGSH iron sulfur domain 2 activators and use thereof” (National Health Research Institutes, priority 2021, dated 2023)", "key": {"[1]": {"test_system": "Cisd2 promoter with firefly luciferase reporter", "test": "Cisd2-luciferase reporter assay in HEK293-CISD2 cells", "format": "cell-based", "details": "Homo sapiens, 24 hours incubation, luciferase luminescence", "outline": "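HEK293 cells stably carrying Cisd2 promoter-firefly luciferase, seeded at 3×10^3 cells/well, exposed to compounds 24 h at 37 °C; luminescence read after 5 min ONE-Glo at room temperature. EC50 reported in classes: A <1 μM, B 1-5 μM, C 5-10 μM.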"}, "Cisd2 hKO-het mice": {"test_system": "Cisd2 hKO-het mice", "test": "In vivo NAFLD study in Cisd2 hKO-het mice (histopathology, serum biochemistry)", "details": "Cisd2 hKO-het male mice, 0.015 wt % in diet for 4 weeks", "experimental": "Compound 28 of this invention was evaluated for its anti-nonalcoholic fatty liver disease (NAFLD) effect and in vivo toxicity following an assay described below.\nCisd2 floxed allele (Cisd2 f/f) mice were prepared following a procedure described in Wang et al., Hum. Mol. Genet. 23, 4770-85(2014). To obtain Cisd2 heterozygous hepatocyte-specific knockout (Cisd2 hKO-het, Cisd2 f/+; Alb-Cre Tg), Cisd2 f/f mice were bred with Albumin-Cre transgenic (Alb-Cre Tg, JAX003574) mice. After one generation, Cisd2 hKO-het mice were obtained. Male mice were chosen to be used in this study. All mice have a pure or congenic C57BL/6 background and were bred/housed in a specific pathogen-free facility with a 12 h light/12 h dark cycle at a temperature of 20-22° C. Groups of mice at 8 weeks old were provided a diet (AIN93G, TestDiet) containing a vehicle (0.14 wt % of DMF and 0.15 wt % of Cremophor® EL) or compound 28 (0.015 wt %) for 4 weeks.\nHistopathology was used to evaluate the efficacy of Compound 28 in ameliorating NAFLD. Liver tissues were collected and fixed with 10% formalin at 4° C. overnight. They were then processed in a tissue processor (STP120, MICROM), followed by embedding in paraffin. H&E of tissue sections (3-4 m) were carried out by a standard protocol. […]"}, "Cisd2 hKO male mice": {"test_system": "Cisd2 hKO male mice", "test": "In vivo fructose-induced NASH model in Cisd2 hKO mice (histopathology, GTT, ITT)", "details": "0.015 wt % in diet for 5 months", "description": "Compound 28 was used to alleviate nonalcoholic steatohepatitis (NASH) in Cisd2 hKO male mice described above.\nCisd2 hKO were bred for two generations. […] They were fed 30% (w/v) fructose (Alfa Aesar A17718) in water to establish a fructose-induced NASH model. Groups of mice at 2 months old were provided with a diet (AIN93G, TestDiet) containing a vehicle (0.14 wt % of DMF and 0.15 wt % of Cremophor® EL) or Compound 28 (0.015 wt %) for 5 months. The food and drinking water were provided ad libitum.\nHistopathology was used to evaluate the efficacy of Compound 28 in alleviating NASH. Liver tissues were processed and stained as described in Example 53 above.\nAn oral glucose tolerance test (GTT) and an insulin tolerance test (ITT) were performed to study beneficial effects of Compound 28 in the fructose-induced NASH model. In the oral glucose tolerance test, mice were fasted for 14 hours (7 p.m. to 9 a.m.) and then were orally administrated with glucose water (1.5 mg/g body weight) using a feeding needle. Blood samples were collected from tail vein before (0 min) and after glucose treatment at predetermined time points. Blood glucose levels were measured using OneTouch® Ultra glucose test strips and SureStep® Meter (LifeScan). In the insulin tolerance test, mice were fasted for 2 hours (9 a.m. to 11 a.m.) and then intraperitoneally injected with insulin (0.75 U/kg body weight) (Actrapid® human regular insulin, Novo Nordisk). Blood samples were collected and monitored at predetermined time points."}, "Male C57BL/6 mice": {"test_system": "Male C57BL/6 mice", "test": "In vivo doxorubicin-induced cachexia and hepatotoxicity", "details": "1 mg/kg i.p. twice a day for 2 days, doxorubicin 25 mg/kg i.p.", "experimental": "Compound 28 was used in rescuing doxorubicin-induced cachexia and hepatotoxicity in the following in vivo study.\nMale C57BL/6 mice between 7 and 8 months were pretreated with Compound 28 (1 mg/kg) or a vehicle (1.5 wt % of DMF and 3 wt % of Cremophor® EL in PBS) via intraperitoneal injection (i.p.) twice a day for 2 days. At day 0, 1 hour after the treatment with compound 28, doxorubicin (25 mg/kg, i.p.) or another vehicle (10% DMSO in normal saline) were injected into mice.\nDifferent tissues including livers, cardiac muscle (left ventricle), skeletal muscle (gastrocnemius), brown adipose tissue, and white adipose tissue were weighted and collected after mice were sacrificed. The tissues were fixed with 10% formalin at 4° C. overnight, processed in a tissue processor, and then embedded in paraffin. H&E of tissue sections (3-4 m) were carried out by a standard protocol as described above."}}, "data": [{"smiles": "O=C(CS(=O)(=O)c1nccs1)N1Cc2ccccc2C1", "note": "[Compound 28, 1-(1,3-dihydro-2H-isoindol-2-yl)-2-(1,3-thiazol-2-ylsulfonyl)ethanone]", "values": [{"measurement": "EC50", "setting": "[1]", "result": "< 1000", "unit": "nM"}, {"measurement": "anti-nonalcoholic fatty liver disease (NAFLD) effect", "setting": "Cisd2 hKO-het mice; liver histopathology", "result": "ameliorated NAFLD in Cisd2 hKO-het mice"}, {"measurement": "in vivo toxicity", "setting": "Cisd2 hKO-het mice; serum ALT, AST, BUN, CRE", "result": "without observed toxicity"}, {"measurement": "effect on fructose-induced NASH", "setting": "Cisd2 hKO male mice; Cisd2 hKO male mice, 30% fructose in water, liver histopathology", "result": "ameliorate fructose-induced NASH"}, {"measurement": "toxicity", "setting": "Cisd2 hKO male mice; fructose-induced NASH model", "result": "without obvious toxicity"}, {"measurement": "effect on fructose-induced insulin resistance", "setting": "Cisd2 hKO male mice; insulin tolerance test", "result": "alleviate fructose-induced glucose intolerance and insulin resistance"}, {"measurement": "effect on fructose-induced glucose intolerance", "setting": "Cisd2 hKO male mice; oral glucose tolerance test", "result": "alleviate fructose-induced glucose intolerance"}, {"measurement": "effect on doxorubicin-induced hepatotoxicity", "setting": "Male C57BL/6 mice", "result": "alleviated doxorubicin-induced hepatotoxicity"}, {"measurement": "effect on doxorubicin-induced cachexia", "setting": "Male C57BL/6 mice; tissue weights", "result": "alleviated doxorubicin-induced hepatotoxicity and cachexia"}]}]}
